Measured values from PMC9127750, “Structure-based design of CDC42 effector interaction inhibitors for the treatment of cancer” (Cell reports, 2022).
“And” between values parts separate entries of the source, which are not always exact repeats. Equal entries are not always repeated.

Tested on: WM3248 melanoma cells, 486 antibodies
Experiment: Reverse phase protein arrays (RPPA)
Assay type: cell-based, Human
Settings: 20 uM, single replicates
Text: Pellets were snap frozen in liquid nitrogen and shipped to MD Anderson Cancer Center core RPPA facility for RPPA analysis (Table S5). Three biological replicates for each sample were generated.
Nomenclatures on the RPPA heatmaps: name_of_antibody.species_of_antibody.status_of_antibody. V - antibody validated; C - validation of antibody in progress; Q - antibody nonspecific; E – under evaluation; antibodies raised in M - mouse, G - goat, R - rabbit, or T - rat.

SMILES: CN(C)c1cccc(Nc2cc(-c3ccccc3)nc(C3CCNCC3)n2)c1 [ARN22089, N1,N1-dimethyl-N3-(6-phenyl-2-(piperidin-4-yl)pyrimidin-4-yl)benzene-1,3-diamine]
- RPPA level HSP60.R.V: 1.015 and 0.888 and 1.096
- RPPA level HSP70.R.C: 1.026 and 1.351 and 1.104
- RPPA level Hexokinase.I.R.C: 0.978 and 0.986
- RPPA level Hexokinase.II.R.V: 1.256 and 0.762 and 0.871
- RPPA level Hif.1αR.C: 0.972 and 1.096 and 0.645
- RPPA level Histone.H3.R.V: 1.540 and 13.252 and 0.726
- RPPA level Histone.H3_pS10.R.V: 1.398 and 3.688 and 0.992
- RPPA level IDO.R.C: 0.839 and 1.159
- RPPA level IGF1R_pY1135_Y1136.R.V: 0.898 and 1.026 and 1.052
- RPPA level IGFBP2.R.V: 0.627 and 0.801 and 1.270
- RPPA level IGFBP3.M.V: 0.715 and 1.003 and 1.004
- RPPA level IGFRb.R.C: 1.190
- RPPA level IL.6.R.C: 0.855 and 1.111 and 1.060
- RPPA level IMP3.R.C: 1.052 and 1.022 and 0.974
- RPPA level INPP4b.R.C: 1.077 and 0.833 and 0.806
- RPPA level IR.b.R.C: 0.907 and 1.208 and 1.333
- RPPA level IRF.1.R.V: 0.730 and 0.964 and 1.168
- RPPA level IRF.3.R.V: 0.995 and 0.906 and 0.945
- RPPA level IRS1.R.V: 1.014 and 1.159 and 1.141
- RPPA level IRS2.R.C: 1.278 and 1.343 and 1.011
- RPPA level JAB1.M.C: 0.955 and 0.936 and 1.024
- RPPA level JNK2.R.V: 0.819 and 0.805 and 1.152
- RPPA level JNK_pT183_Y185.R.C: 0.945 and 1.049 and 1.120
- RPPA level Jagged1.R.V: 0.981 and 1.189
- RPPA level Jak2.R.V: 1.014 and 1.017
- RPPA level KAP1.R.V: 1.154 and 0.878
- RPPA level KEAP1.R.V: 1.208 and 0.814 and 0.859
- RPPA level LAD1.R.V: 0.839 and 1.022 and 1.196
- RPPA level LC3A.B.R.C: 1.392 and 1.015
- RPPA level LCN2.R.V: 2.637 and 0.737 and 1.009
- RPPA level LDHA.R.C: 0.867 and 0.798 and 1.272
- RPPA level LRP6_pS1490.R.V: 0.973
- RPPA level Lasu1.R.V: 1.275 and 1.065 and 0.935
- RPPA level Lck.R.V: 1.245 and 1.124 and 1.192
- RPPA level Lyn.R.V: 1.188 and 0.948
- RPPA level MACC1.R.V: 1.006 and 1.026 and 0.991
- RPPA level MAPK_pT202_Y204.R.C: 0.788 and 0.541 and 0.701
- RPPA level MCT4.R.V: 0.646 and 0.854 and 1.188
- RPPA level MDM2_pS166.R.V: 1.371 and 1.241 and 1.078
- RPPA level MEK1.R.V: 0.858 and 3.823 and 2.342
- RPPA level MEK1_pS217_S221.R.V: 0.758 and 1.168 and 1.336
- RPPA level MEK2.R.V: 1.000 and 1.139
- RPPA level MERIT40.R.C: 0.830 and 0.763
- RPPA level MERIT40_pS29.R.V: 0.843 and 1.161
- RPPA level METTL3.R.V: 1.391 and 1.001
- RPPA level MIF.R.C: 1.003 and 0.889 and 0.956
- RPPA level MIG6.R.V: 0.962 and 1.022 and 0.982
- RPPA level MITF.R.V: 1.062 and 1.054 and 0.977
- RPPA level MLH1.M.V: 0.822 and 0.867 and 0.972
- RPPA level MLKL.R.V: 0.744 and 0.811 and 1.046
- RPPA level MMP2.R.V: 1.019 and 0.966 and 0.959
- RPPA level MMP14.R.V: 1.320 and 1.294 and 1.349
- RPPA level MR1.M.C: 0.957 and 1.152 and 0.970
- RPPA level MRAP.R.C: 0.958 and 1.263 and 1.157
- RPPA level MSH2.R.C: 0.876 and 0.877 and 0.987
- RPPA level MSH6.R.C: 1.224 and 1.204 and 1.063
- RPPA level MSI2.R.C: 1.222 and 1.004
- RPPA level MTCO1.M.V: 1.417 and 0.726
- RPPA level MTSS1.M.C: 0.974 and 1.002 and 0.966
- RPPA level Mcl.1.R.V: 0.716 and 0.788 and 1.009
- RPPA level MelanA.R.C: 1.005
- RPPA level Melanoma.gp100.R.C: 0.910 and 0.978 and 1.134
- RPPA level Merlin.R.C: 1.134 and 1.227 and 1.109
- RPPA level Midkine.R.V: 0.990 and 0.926 and 0.994
- RPPA level Mitofusin.1.R.V: 0.874 and 0.829 and 1.152
- RPPA level Mitofusin.2.R.V: 0.751 and 0.836
- RPPA level Mnk1.R.V: 0.933 and 0.905 and 1.031
- RPPA level mTOR.R.V: 0.956 and 0.920
- RPPA level mTOR_pS2448.R.C: 0.845 and 0.920 and 0.976
- RPPA p21.R.C: 1.050 and 0.570 and 0.863
- RPPA p27.Kip1.R.C: 1.342 and 1.132 and 0.997
- RPPA p27_pT157.R.C: 1.309 and 1.207 and 1.127
- RPPA p27_pT198.R.V: 1.003 and 1.297 and 1.169
- RPPA p38.MAPK.R.V: 0.937 and 0.864 and 1.143
- RPPA p38.MAPK._pT180_Y182.R.V: 0.828 and 1.168 and 1.281
- RPPA p38.a.M.V: 0.862 and 0.943
- RPPA p44.42.MAPK.R.V: 1.247 and 0.862 and 0.981
- RPPA p53.R.C: 0.928 and 1.483 and 1.058
- RPPA p70.S6K1.R.V: 1.060 and 0.948
- RPPA p70.S6K_pT389.R.V: 0.797 and 1.020 and 1.171
- RPPA p90RSK_pT573.R.C: 1.285 and 0.748 and 1.009
